From ChEMBL document CHEMBL2375303, “Molecular determinants for nuclear receptors selectivity: chemometric analysis, dockings and site-directed mutagenesis of dual peroxisome proliferator-activated receptors α/γ agonists” (Eur J Med Chem, 2013) come the findings set out here.

Assay type in all cases: cell-based
The target in experiment [1] is T1, Peroxisome proliferator-activated receptor alpha (Homo sapiens, UniProt Q07869).
T1 sequence (Q07869 whole entry): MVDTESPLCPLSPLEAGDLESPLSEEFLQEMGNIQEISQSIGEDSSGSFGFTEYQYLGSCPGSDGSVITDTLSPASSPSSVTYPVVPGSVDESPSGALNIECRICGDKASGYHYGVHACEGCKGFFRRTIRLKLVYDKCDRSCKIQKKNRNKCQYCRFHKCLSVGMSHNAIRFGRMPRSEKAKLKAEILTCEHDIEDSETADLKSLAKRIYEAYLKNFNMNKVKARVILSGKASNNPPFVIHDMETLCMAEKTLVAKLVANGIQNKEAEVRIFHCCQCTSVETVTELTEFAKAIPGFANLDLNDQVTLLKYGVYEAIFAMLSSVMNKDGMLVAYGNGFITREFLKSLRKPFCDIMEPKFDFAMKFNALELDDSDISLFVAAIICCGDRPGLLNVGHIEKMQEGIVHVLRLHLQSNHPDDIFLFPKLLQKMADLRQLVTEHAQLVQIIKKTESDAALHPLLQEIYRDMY
Description: Agonist activity at GAL4-fused PPARalpha (unknown origin) expressed in human HepG2 cells by transactivation assay.

Experiment [2] addresses T2, Peroxisome proliferator-activated receptor gamma (Homo sapiens, UniProt P37231).
T2 sequence (P37231 whole entry): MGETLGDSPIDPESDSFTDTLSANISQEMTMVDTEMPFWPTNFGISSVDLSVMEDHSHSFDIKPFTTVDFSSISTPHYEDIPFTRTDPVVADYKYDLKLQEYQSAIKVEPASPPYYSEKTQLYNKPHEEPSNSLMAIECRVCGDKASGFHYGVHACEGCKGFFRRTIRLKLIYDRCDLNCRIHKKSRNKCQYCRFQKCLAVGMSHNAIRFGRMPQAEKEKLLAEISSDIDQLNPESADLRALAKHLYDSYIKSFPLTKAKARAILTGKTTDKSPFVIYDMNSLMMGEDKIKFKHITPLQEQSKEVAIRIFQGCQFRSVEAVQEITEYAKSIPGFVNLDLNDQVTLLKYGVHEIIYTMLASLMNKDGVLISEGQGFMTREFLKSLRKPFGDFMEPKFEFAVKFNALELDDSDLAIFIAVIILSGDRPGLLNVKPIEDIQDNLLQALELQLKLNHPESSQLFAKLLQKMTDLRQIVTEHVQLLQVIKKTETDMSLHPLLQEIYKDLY
Description: Agonist activity at GAL4-fused PPARgamma (unknown origin) expressed in human HepG2 cells by transactivation assay.

The target of experiment [3] is Peroxisome proliferator-activated receptor alpha (Homo sapiens, UniProt Q07869, A454M). The experiment in a line: Agonist activity at GAL4-fused PPARalpha A454M mutant (unknown origin) expressed in human HepG2 cells by transactivation assay.
Chain of Peroxisome proliferator-activated receptor alpha (Homo sapiens, UniProt Q07869, A454M) (Q07869 whole entry A454M, the tested form may be a part): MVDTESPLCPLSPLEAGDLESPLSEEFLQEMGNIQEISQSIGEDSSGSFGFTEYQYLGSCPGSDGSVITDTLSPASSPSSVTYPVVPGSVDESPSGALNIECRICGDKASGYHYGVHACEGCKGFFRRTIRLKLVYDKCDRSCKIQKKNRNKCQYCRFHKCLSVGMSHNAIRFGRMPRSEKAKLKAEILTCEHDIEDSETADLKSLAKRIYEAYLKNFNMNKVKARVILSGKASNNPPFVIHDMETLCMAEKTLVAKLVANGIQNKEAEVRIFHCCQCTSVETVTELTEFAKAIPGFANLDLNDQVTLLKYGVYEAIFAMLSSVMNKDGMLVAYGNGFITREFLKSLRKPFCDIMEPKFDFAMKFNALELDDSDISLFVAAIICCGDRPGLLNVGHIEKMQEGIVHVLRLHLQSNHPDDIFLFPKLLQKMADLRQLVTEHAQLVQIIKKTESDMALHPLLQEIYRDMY
The nature of experiment [4]: Agonist activity at GAL4-fused PPARgamma M463A mutant (unknown origin) expressed in human HepG2 cells by transactivation assay.

With `O=C(O)[C@H](CCc1ccccc1)Oc1ccc(Cl)cc1`, the EC50 in experiment [1] (read-out: pEC50 (converted)) is 2.4 µM; in experiment [2] (read-out: pEC50 (converted)) it was 7.08 µM.
Taken in the same sequence, the figures for `O=C(O)[C@H](CCCc1ccccc1)Oc1ccc(Cl)cc1` were 0.589 µM and 0.912 µM.
`O=C(O)[C@H](CCCc1ccc(Cl)cc1)Oc1ccc(Cl)cc1`: the figures for the EC50 in experiment [1] (read-out: pEC50 (converted)) and in experiment [2] (read-out: pEC50 (converted)) were 0.631 µM and 0.316 µM, respectively.
The corresponding values for `O=C(O)[C@H](COc1ccccc1)Oc1ccc(Cl)cc1` are 2.51 µM and 1.66 µM.
Taken in the same sequence, the figures for `O=C(O)[C@H](CCOc1ccccc1)Oc1ccc(Cl)cc1` were 3.02 µM and 1.26 µM.
For the molecule `O=C(O)[C@H](Cc1ccccc1)Oc1ccc(Oc2ccccc2)cc1`, the EC50 is 0.891 µM in experiment [1] (read-out: pEC50 (converted)) and 1.58 µM in experiment [2] (read-out: pEC50 (converted)).
Take `O=C(O)[C@H](Cc1ccccc1)Oc1ccc(-c2ccc(Cl)cc2)cc1`: the EC50 in experiment [1] (read-out: pEC50 (converted)) is 3.89 µM; in experiment [2] (read-out: pEC50 (converted)), 8.91 µM.
For the molecule `O=C(O)[C@H](Cc1ccc(C(F)(F)F)cc1)Oc1ccc(Cl)cc1`, the EC50 in experiment [1] (read-out: pEC50 (converted)) was 3.63 µM; in experiment [2] (read-out: pEC50 (converted)), 0.417 µM.
Regarding `O=C(O)[C@H](Cc1ccc(Oc2ccccc2)cc1)Oc1ccc(Cl)cc1`, the EC50 in experiment [3] is 0.9 µM; in experiment [1] (read-out: EC50) it was 3.9 µM; in experiment [1] (read-out: pEC50 (converted)), 0.871 µM; in experiment [4], 0.34 µM; in experiment [2] (read-out: EC50), 0.32 µM; in experiment [2] (read-out: pEC50 (converted)), 0.0269 µM.
Consider `O=C(O)[C@H](Cc1ccc(-c2ccccc2)cc1)Oc1ccc(Cl)cc1`, for which the EC50 was 1.12 µM in experiment [1] (read-out: pEC50 (converted)) and 0.049 µM in experiment [2] (read-out: pEC50 (converted)).
The corresponding values for `O=C(O)[C@H](Cc1ccc(-c2cccs2)cc1)Oc1ccc(Cl)cc1` are 0.589 µM and 0.0646 µM.
Turning to `O=C(O)[C@H](Cc1ccccc1)Oc1ccc(Cc2ccccc2)cc1`, the EC50 in experiment [3] was determined as 0.4 µM; in experiment [1] (read-out: EC50) it was 0.04 µM; in experiment [4], 0.47 µM; in experiment [2] (read-out: EC50), 0.6 µM.
As for `CN(CCOc1ccc(CC2SC(=O)NC2=O)cc1)c1ccccn1` (stereo unspecified) [ROSIGLITAZONE], the EC50 in experiment [4] was determined as 0.002 µM.
